Source: US10294272B2, “Peptides with antagonistic activities against natural CXCR4” (Pharis Biotec GmbH, priority 2013, dated 2019)
Positions of bridges follow the written chain, without caps; N, C: chain ends. Residues, ends and D or L forms follow the SMILES beside them. Chains are numbered I, II in the order given. No end group written: not given here.

Tested on: X4 tropic HIV-1 NL4-3
Details: blocking X4 tropic HIV-1 NL4-3 infection
Method: Antiviral screening was performed using the X4 HIV-1 NL4-3 molecular clone.
HIV-1, HIV-2 and SIV molecular clones differing in coreceptor tropism were generated by transient transfection of 293T cells with proviral DNA by the calcium phosphate method (CalPhos™ Mammalian Transfection Kit, Clon-tech). After overnight incubation, the transfection mixture was replaced by DMEM medium supplemented with 10% FCS, and virus stocks were harvested 48 hrs post-transfection. Subsequently, the culture supernatant was centrifuged for 5 min at 3000 rpm to remove cell debris. The resulting virus stock was quantified by p24 (HIV) or p27 (SIV) antigen ELISA. Virus stocks were either used immediately or stored in aliquots at −80° C.
TZM-bl reporter cells containing the LacZ reporter gene under the control of the HIV-1 promoter were seeded in 96-well F-bottom microtiter plates (Greiner Bio-One). On the following day, the cells were preincubated with various dilutions of the peptide of SEQ ID NO 16 or its derivatives for 1 hour and subsequently infected with HIV-1, HIV-2, and SIV. Infection rates were determined after 2 days using the one-step Tropix Gal-Screen Kit, as recommended by the manufacturer.

With “IVRWTCKVPQVS [408I-419 WCO2, IVRWTCKVPQVS]” as the compound, how does the IC50 read?
Its IC50 is 2.1 µM.

How did the IC50 turn out when IVRYSKKVPQC [408I-418 SC, IVRYSKKVPQC] was run?
Its IC50 is 2.94 µM.

How did the IC50 turn out when “IVRWSKKVPCVS [408I-419 WSC02, IVRWSKKVPCVS]” was run?
Its IC50 is 0.31 µM.

For “LVRYTKKVPQVS [Derivative 408-419, LVRYTKKVPQVS]”, which IC50 is on record?
The IC50 was 5.49 µM.

For CC[C@H](C)[C@H](N)C(=O)N[C@H](C(=O)N[C@@H](CCCNC(=N)N)C(=O)N[C@@H](Cc1c[nH]c2ccccc12)C(=O)N[C@@H](CO)C(=O)N[C@@H](CCCCN)C(=O)N[C@@H](CCCCN)C(=O)N[C@H](C(=O)N1CCC[C@H]1C(=O)N[C@@H](CCC(N)=O)C(=O)N[C@@H](CSSC[C@H](NC(=O)[C@H](CCC(N)=O)NC(=O)[C@@H]1CCCN1C(=O)[C@@H](NC(=O)[C@H](CCCCN)NC(=O)[C@H](CCCCN)NC(=O)[C@H](CO)NC(=O)[C@H](Cc1c[nH]c2ccccc12)NC(=O)[C@H](CCCNC(=N)N)NC(=O)[C@@H](NC(=O)[C@@H](N)[C@@H](C)CC)C(C)C)C(C)C)C(=O)N[C@@H](CO)C(=O)O)C(=O)N[C@@H](CO)C(=O)O)C(C)C)C(C)C [408I-419 WSC01 x2, (IVRWSKKVPQCS)2] (I: H-IVRWSKKVPQCS-OH / II: H-IVRWSKKVPQCS-OH; disulfide I:11-II:11; N-terminus and C-terminus assumed), which IC50 is on record?
Its IC50 is 0.18 µM.

With “IVRWSKKVCQVS [408I-419 WSC03, IVRWSKKVCQVS]” as the compound, how does the IC50 read?
The IC50 was 1.51 µM.

LVRYTKKV [Derivative 408-415, LVRYTKKV] was tested. Which IC50 did it give?
Its IC50 is 25.7 µM.

With “IVRYTKCVPQVS [408I-419 K414C, IVRYTKCVPQVS]” as the compound, how does the IC50 read?
The IC50 was 5.87 µM.

Which IC50 does the source give for CC[C@H](C)[C@H](N)C(=O)N[C@H](C(=O)N[C@@H](CCCNC(=N)N)C(=O)N[C@@H](Cc1c[nH]c2ccccc12)C(=O)N[C@@H](CSSC[C@H](NC(=O)[C@H](Cc1c[nH]c2ccccc12)NC(=O)[C@H](CCCNC(=N)N)NC(=O)[C@@H](NC(=O)[C@@H](N)[C@@H](C)CC)C(C)C)C(=O)N[C@@H](CCCCN)C(=O)N[C@@H](CCCCN)C(=O)N[C@H](C(=O)N1CCC[C@H]1C(=O)N[C@@H](CCC(N)=O)C(=O)N[C@H](C(=O)N[C@@H](CO)C(=O)O)C(C)C)C(C)C)C(=O)N[C@@H](CCCCN)C(=O)N[C@@H](CCCCN)C(=O)N[C@H](C(=O)N1CCC[C@H]1C(=O)N[C@@H](CCC(N)=O)C(=O)N[C@H](C(=O)N[C@@H](CO)C(=O)O)C(C)C)C(C)C)C(C)C [408I-419 WC03 x2, (IVRWCKKVPQVS)2] (I: H-IVRWCKKVPQVS-OH / II: H-IVRWCKKVPQVS-OH; disulfide I:5-II:5; N-terminus and C-terminus assumed) here?
Its IC50 is 0.6 µM.

How did the IC50 turn out when “LVRYTKKVPQVST [Derivative 408-420, LVRYTKKVPQVST]” was run?
The IC50 was 15.3 µM.

“LVRYTKKVPQVSTPT [Derivative 408-422, LVRYTKKVPQVSTPT]” was tested. Which IC50 did it give?
Its IC50 is 13.4 µM.

How did the IC50 turn out when “LVRYTKKVPQV [Derivative 408-418, LVRYTKKVPQV]” was run?
The IC50 was 26.8 µM.

How did the IC50 turn out when “LLVRYTKKVPQVS [Derivative 407-419, LLVRYTKKVPQVS]” was run?
Its IC50 is 11.1 µM.

Which IC50 does the source give for “LVRYTKKVPQ [Derivative 408-417, LVRYTKKVPQ]” here?
The IC50 was 19.8 µM.

With “LVRYTKKVPQVSTP [Derivative 408-421, LVRYTKKVPQVSTP]” as the compound, how does the IC50 read?
The IC50 was 14 µM.

Which IC50 does the source give for “IVRYTKKVPQVS [Derivative 408I-419, IVRYTKKVPQVS]” here?
Its IC50 is 2.48 µM.

Which IC50 does the source give for “IVRWCKKVPQVS [408I-419 WC03, IVRWCKKVPQVS]” here?
The IC50 was 1.82 µM.

Which IC50 does the source give for “IVRWTKKVPQVS [408I-419 Y411W, IVRWTKKVPQVS]” here?
Its IC50 is 1.54 µM.

Which IC50 does the source give for “IVRWSKKVPQCS [408I-419 WSC01, IVRWSKKVPQCS]” here?
Its IC50 is 0.87 µM.

With “IVRYSKKVPQVS [408I-419 T412S, IVRYSKKVPQVS]” as the compound, how does the IC50 read?
The IC50 was 2.09 µM.

How did the IC50 turn out when “IVHYTKKVPQVS [408I-419 R410H, IVHYTKKVPQVS]” was run?
Its IC50 is greater than 100 µM.

With CC[C@H](C)[C@H](N)C(=O)N[C@H](C(=O)N[C@@H](CCCNC(=N)N)C(=O)N[C@@H](Cc1ccc(O)cc1)C(=O)N[C@H](C(=O)N[C@@H](CCCCN)C(=O)N[C@@H](CSSC[C@H](NC(=O)[C@H](CCCCN)NC(=O)[C@@H](NC(=O)[C@H](Cc1ccc(O)cc1)NC(=O)[C@H](CCCNC(=N)N)NC(=O)[C@@H](NC(=O)[C@@H](N)[C@@H](C)CC)C(C)C)[C@@H](C)O)C(=O)N[C@H](C(=O)N1CCC[C@H]1C(=O)N[C@@H](CCC(N)=O)C(=O)N[C@H](C(=O)N[C@@H](CO)C(=O)O)C(C)C)C(C)C)C(=O)N[C@H](C(=O)N1CCC[C@H]1C(=O)N[C@@H](CCC(N)=O)C(=O)N[C@H](C(=O)N[C@@H](CO)C(=O)O)C(C)C)C(C)C)[C@@H](C)O)C(C)C [408I-419 K414C x2, (IVRYTKCVPQVS)2] (I: H-IVRYTKCVPQVS-OH / II: H-IVRYTKCVPQVS-OH; disulfide I:7-II:7; N-terminus and C-terminus assumed) as the compound, how does the IC50 read?
The IC50 was 1.05 µM.

For CC[C@H](C)[C@H](N)C(=O)N[C@H](C(=O)N[C@@H](CCCNC(=N)N)C(=O)N[C@@H](Cc1ccc(O)cc1)C(=O)N[C@H](C(=O)N[C@@H](CCCCN)C(=O)N[C@@H](CCCCN)C(=O)N[C@H](C(=O)N1CCC[C@H]1C(=O)N[C@@H](CCC(N)=O)C(=O)N[C@@H](CSSC[C@H](NC(=O)[C@H](CCC(N)=O)NC(=O)[C@@H]1CCCN1C(=O)[C@@H](NC(=O)[C@H](CCCCN)NC(=O)[C@H](CCCCN)NC(=O)[C@@H](NC(=O)[C@H](Cc1ccc(O)cc1)NC(=O)[C@H](CCCNC(=N)N)NC(=O)[C@@H](NC(=O)[C@@H](N)[C@@H](C)CC)C(C)C)[C@@H](C)O)C(C)C)C(=O)N[C@@H](CO)C(=O)O)C(=O)N[C@@H](CO)C(=O)O)C(C)C)[C@@H](C)O)C(C)C [408I-419 V418C x2, (IVRYTKKVPQCS)2] (I: H-IVRYTKKVPQCS-OH / II: H-IVRYTKKVPQCS-OH; disulfide I:11-II:11; N-terminus and C-terminus assumed), which IC50 is on record?
Its IC50 is 0.46 µM.

Which IC50 does the source give for LARYTKKV [408-415-V409A, LARYTKKV] here?
Its IC50 is 32.9 µM.

With CC[C@H](C)[C@H](N)C(=O)N[C@H](C(=O)N[C@@H](CCCNC(=N)N)C(=O)N[C@@H](Cc1c[nH]c2ccccc12)C(=O)N[C@H](C(=O)N[C@@H](CCCCN)C(=O)N[C@@H](CCCCN)C(=O)N[C@H](C(=O)N1CCC[C@H]1C(=O)N[C@@H](CCC(N)=O)C(=O)N[C@H](C(=O)N[C@@H](CSSC[C@H](NC(=O)[C@@H](NC(=O)[C@H](CCC(N)=O)NC(=O)[C@@H]1CCCN1C(=O)[C@@H](NC(=O)[C@H](CCCCN)NC(=O)[C@H](CCCCN)NC(=O)[C@@H](NC(=O)[C@H](Cc1c[nH]c2ccccc12)NC(=O)[C@H](CCCNC(=N)N)NC(=O)[C@@H](NC(=O)[C@@H](N)[C@@H](C)CC)C(C)C)[C@@H](C)O)C(C)C)C(C)C)C(=O)O)C(=O)O)C(C)C)C(C)C)[C@@H](C)O)C(C)C [408I-419 WC01_x2, (IVRWTKKVPQVC)2] (I: H-IVRWTKKVPQVC-OH / II: H-IVRWTKKVPQVC-OH; disulfide I:12-II:12; N-terminus and C-terminus assumed) as the compound, how does the IC50 read?
The IC50 was 0.4 µM.

How did the IC50 turn out when LVRYAKKV [408-415-T412A, LVRYAKKV] was run?
The IC50 was 11.2 µM.

How did the IC50 turn out when CC[C@H](C)[C@H](N)C(=O)N[C@H](C(=O)N[C@@H](CCCNC(=N)N)C(=O)N[C@@H](Cc1ccc(O)cc1)C(=O)N[C@@H](CO)C(=O)N[C@@H](CCCCN)C(=O)N[C@@H](CCCCN)C(=O)N[C@H](C(=O)N1CCC[C@H]1C(=O)N[C@@H](CCC(N)=O)C(=O)N[C@@H](CSSC[C@H](NC(=O)[C@H](CCC(N)=O)NC(=O)[C@@H]1CCCN1C(=O)[C@@H](NC(=O)[C@H](CCCCN)NC(=O)[C@H](CCCCN)NC(=O)[C@H](CO)NC(=O)[C@H](Cc1ccc(O)cc1)NC(=O)[C@H](CCCNC(=N)N)NC(=O)[C@@H](NC(=O)[C@@H](N)[C@@H](C)CC)C(C)C)C(C)C)C(=O)O)C(=O)O)C(C)C)C(C)C [408I-418 SC x2, (IVRYSKKVPQC)2] (I: H-IVRYSKKVPQC-OH / II: H-IVRYSKKVPQC-OH; disulfide I:11-II:11; N-terminus and C-terminus assumed) was run?
The IC50 was 0.39 µM.

For “IVRYTKKVPQCS [408I-419 V418C, IVRYTKKVPQCS]”, which IC50 is on record?
Its IC50 is 3.69 µM.

With “IVRSTKKVPQVS [408I-419 Y411S, IVRSTKKVPQVS]” as the compound, how does the IC50 read?
Its IC50 is greater than 100 µM.

CC[C@H](C)[C@H](N)C(=O)N[C@H](C(=O)N[C@@H](CCCNC(=N)N)C(=O)N[C@@H](Cc1c[nH]c2ccccc12)C(=O)N[C@@H](CO)C(=O)N[C@@H](CCCCN)C(=O)N[C@@H](CCCCN)C(=O)N[C@H](C(=O)N1CCC[C@H]1C(=O)N[C@@H](CSSC[C@H](NC(=O)[C@@H]1CCCN1C(=O)[C@@H](NC(=O)[C@H](CCCCN)NC(=O)[C@H](CCCCN)NC(=O)[C@H](CO)NC(=O)[C@H](Cc1c[nH]c2ccccc12)NC(=O)[C@H](CCCNC(=N)N)NC(=O)[C@@H](NC(=O)[C@@H](N)[C@@H](C)CC)C(C)C)C(C)C)C(=O)N[C@H](C(=O)N[C@@H](CO)C(=O)O)C(C)C)C(=O)N[C@H](C(=O)N[C@@H](CO)C(=O)O)C(C)C)C(C)C)C(C)C [408I-419 WSC02 x2, (IVRWSKKVPCVS)2] (I: H-IVRWSKKVPCVS-OH / II: H-IVRWSKKVPCVS-OH; disulfide I:10-II:10) was tested. Which IC50 did it give?
Its IC50 is 0.12 µM.

For “IVKYTKKVPQVS [408I-419 R410K, IVKYTKKVPQVS]”, which IC50 is on record?
Its IC50 is greater than 100 µM.

“IVRFTKKVPQVS [408I-419 Y411F, IVRFTKKVPQVS]” was tested. Which IC50 did it give?
Its IC50 is 3.89 µM.
